Test results as given in US20240352429A1, “AGENT FOR INDUCING VIRAL VECTOR PRODUCTION” (priority 2021, published 2024).

Columns and labels:
[1] = tested on: suspension HEK293 cells (FreeStyle 293F cell); type: cell-based; conditions: for titer of adeno-associated virus vector in the cell-derived sample, various cell growth inhibitors A: nocodazole 500 nM, benzimidazoles 50 μM, 5 μM, 500 nM, vinblastine sulfate, colcemid, taxanes 5 μM, 100 nM, FIG. 3 to 7
suspension HEK293 cells [2] = experiment: Titer of adeno-associated virus vector (AAV2) produced with a bioreactor (400 mL culture medium), quantitative PCR; type: cell-based; conditions: nocodazole final 500 nM in DMSO, added 4 hours after introduction of the nucleic acid; vs w/o; FIG. 9
Description: On the day of introduction of a nucleic acid into the cells, the suspension HEK293 cells were seeded in a bioreactor (animal cell culture apparatus BCP, volume 1 L, ABLE Corporation), with the number of cells being adjusted to 1×10^6 cells/mL (in an amount of culture medium of 400 mL).
pRC2-mi342 (1 μg/μL, 240 μL, packaging plasmid DNA), pAAV-Venus (1 μg/μL, 80 μL, vector plasmid DNA), pHelper (1 μg/μL, 160 μL, helper plasmid DNA), and PEI MAX (1 μg/μL, 960 μL, Polysciences Inc.) as polyethylenimine (PEI) were mixed and left to stand in Opti-MEM (Thermo Fisher Scientific K.K.) for production of a double-stranded circular plasmid DNA-PEI mixed solution.
Nucleic acids were introduced into the cells by adding the double-stranded circular plasmid DNA-PEI mixed solution to the cell culture medium. Thereafter, AAV2 was produced by culturing at 37° C. in the presence of 8% CO2 for 4 days.
Four days after introduction of the nucleic acid into the cells, the supernatant and the cells were separated, PEG8000 (Sigma-Aldrich Co. LLC) was added to the supernatant obtained, and the adeno-associated virus vector was concentrated. Triton X-100 (Sigma-Aldrich Co. LLC) was added to the residual for cell lysis, and thereafter KANEKA Endonuclease (KANEKA CORPORATION) was added for degradation of DNA. […]
Quantification of the adeno-associated virus was performed by the same method as in Example 1.

virus-like particles = conditions: known from Non Patent Literature 1; cited from earlier work
suspension HEK293 cells [3] = experiment: Titer of adeno-associated virus vector (AAV2) by quantitative PCR after introducing linear covalently closed DNA (LCC DNA) with PEI; type: cell-based; conditions: for titer of adeno-associated virus vector from the cell-derived sample, LCC DNA: DMSO as solubilizer, nocodazole 500 nM added 1 minute after introduction, oxibendazole 50 μM, 5 μM, 500 nM, 50 nM, FIG. 11
Description: On the day of introduction of the nucleic acid into the cells, the suspension HEK293 cells were seeded in a 50-mL centrifuge tube equipped with a filter cap, with the number of cells being adjusted to 1×10^6 cells/mL (an amount of culture medium of 5 mL).
In the condition where a linear covalently closed DNA was used as the nucleic acid to be introduced into the cells, RC2_LCC_DNA (1 μg/μL, 4 μL, packaging plasmid DNA), Venus_LCC_DNA (1 μg/μL, 1 μL, vector plasmid DNA), Helper_LCC_DNA (1 μg/μL, 1 μL, helper plasmid DNA), and PEI MAX (1 μg/μL, 12 μL, Polysciences Inc.) as polyethylenimine (PEI) were mixed and left to stand in Opti-MEM (Thermo Fisher Scientific K.K.) for production of a LCC DNA-PEI mixed solution. Nucleic acids were introduced into the cells by adding the LCC DNA-PEI mixed solution to the cell culture medium. Thereafter, AAV2 was produced by culturing at 37° C. in the presence of 8% CO2 for 4 days.
Extraction and quantification of the adeno-associated virus vector were carried out by the same methods as in Example 1.
When the cell growth inhibitor A was oxibendazole (Tokyo Chemical Industry Co., Ltd.), DMSO was used as a solubilizer, and oxibendazole was added to the cell culture medium so that the final concentrations of oxibendazole were four kinds of concentrations, i.e., 50 μM, 5 μM, 500 nM, and 50 nM.

[4] = added 4 hours after introduction of the nucleic acid, DMSO as solubilizer

CCCSc1ccc2nc(NC(=O)OC)[nH]c2c1 [albendazole]
titer of adeno-associated virus vector in the cell-derived sample, various cell growth inhibitors A [1, 4]: improved

CC(=O)O[C@@]12CO[C@@H]1C[C@H](O)[C@@]1(C)C(=O)[C@H](O)C3=C(C)[C@@H](OC(=O)[C@H](O)[C@@H](NC(=O)OC(C)(C)C)c4ccccc4)C[C@@](O)([C@@H](OC(=O)c4ccccc4)[C@H]21)C3(C)C [docetaxel]
titer of adeno-associated virus vector in the cell-derived sample, various cell growth inhibitors A [1, 4]: improved

COC(=O)Nc1nc2ccc(Sc3ccccc3)cc2[nH]1 [fenbendazole]
titer of adeno-associated virus vector in the cell-derived sample, various cell growth inhibitors A [1, 4]: improved

COC(=O)Nc1nc2ccc(C(=O)c3cccs3)cc2[nH]1 [nocodazole]
total titer of adeno-associated virus vector (cell-derived and supernatant-derived sample) at bioreactor scale (suspension HEK293 cells [2]): reproduced | titer of adeno-associated virus vector in the cell-derived sample, various cell growth inhibitors A [1, 4]: improved | total titer of adeno-associated virus vector (cell-derived sample and supernatant-derived sample) ([1]; final concentration from 250 nM to 2 μM, DMSO as solubilizer, added 4 hours after introduction of the nucleic acid, 4 days culture, vs 0 nM (DMSO only), FIG. 1): improved | effect of improving the titer of adeno-associated virus vector (cell-derived sample) compared with sodium valproate ([1]; nocodazole 500 nM in DMSO vs sodium valproate (VPA) 1, 2.5, 5, 10 or 12.5 mM in water, FIG. 8): larger | increase of the titer of adeno-associated virus vector (cell-derived sample), double-stranded circular plasmid DNA ([1]; nocodazole 500 nM in DMSO, added 1 minute after introduction of the nucleic acid, pDNA, vs w/o, FIG. 10): eightfold | titer of adeno-associated virus vector in the cell-derived sample, influence of timing of addition ([1]; nocodazole final 500 nM in DMSO, added between 24 hours before and 4 hours after introduction of the nucleic acid, vs DMSO only, FIG. 2): improved | productivity of virus-like particles (virus-like particles): reduces | titer of adeno-associated virus vector from the cell-derived sample, LCC DNA (suspension HEK293 cells [3]): increased | increase of the titer of adeno-associated virus vector (cell-derived sample), linear covalently closed DNA (suspension HEK293 cells [3]; nocodazole 500 nM in DMSO, added 1 minute after introduction of the nucleic acid, vs w/o, FIG. 10): fourteenfold

CCCOc1ccc2nc(NC(=O)OC)[nH]c2c1 [oxibendazole]
titer of adeno-associated virus vector from the cell-derived sample, LCC DNA (suspension HEK293 cells [3]): increased

CC(=O)O[C@H]1C(=O)[C@@]2(C)[C@H]([C@H](OC(=O)c3ccccc3)[C@]3(O)C[C@H](OC(=O)[C@H](O)[C@@H](NC(=O)c4ccccc4)c4ccccc4)C(C)=C1C3(C)C)[C@]1(OC(C)=O)CO[C@@H]1C[C@@H]2O [paclitaxel]
titer of adeno-associated virus vector in the cell-derived sample, various cell growth inhibitors A [1, 4]: improved

CC[C@]1(O)C[C@@H]2CN(CCc3c([nH]c4ccccc34)[C@@](C(=O)OC)(c3cc4c(cc3OC)N(C)[C@H]3[C@@](O)(C(=O)OC)[C@H](OC(C)=O)[C@]5(CC)C=CCN6CC[C@]43[C@@H]65)C2)C1 [vinblastine]
titer of adeno-associated virus vector in the cell-derived sample, various cell growth inhibitors A [1, 4]: improved
